Experimental findings from patent US12673918B2, “Small molecule RPN13 inhibitors with antitumor properties” (The Johns Hopkins University, priority 2019, dated 2026) are described below.

The test system of one data set is intracellular GSH. The experiment in a line: Total GSH assay, ES2 cells. The class given is cell-based, human. Particulars: ES2, 12 hr. The text has this: FIG. 16B illustrates ES2 cells treated with compounds for 12 hr and the total GSH level assayed.
Recent insights indicate that ER stress and oxidative stress are highly interrelated biological process which regulate a wide range of signaling pathways in cells. […] Oxidative stress is characterized by an imbalance between the production of ROS and the availability of free GSH. Generation of ROS is considered an early event in the process of apoptotic cell death (68). To counteract ROS, cells upregulate antioxidant pathways including intracellular glutathione (GSH).
Luciferase and GSH assays: Sub-confluent cultures of cells were transfected with 4Ub-FL or FL plasmid using Lipofectamine 2000 reagent (Life Technologies). Cells were seeded at 10,000 cells/well in 96-wells plate 48 hr post transfection and incubated with compounds or vehicle (DMSO) at the doses and times indicated. Luciferase activity in cell lysate was determined with a luciferase assay kit (Promega) according to the manufacturer's instructions. Bioluminescence was measured by using a Glomax Multidetection system (Promega). Glutathione was assayed using the Promega GSH assay kit (V6611).

The test system of a further data set is PEO1. In words: cells. Particulars: Homo sapiens, PEO1, read-out: cytotoxicity IC50 PEO1.
A further data set has as its system CHOP-10 mRNA. In words: RT-qPCR of CHOP-10 mRNA, ES2 cells. The class given is cell-based, human. To be noted: ES2, 0.5 μM, 12 hr. As to the method: FIG. 7A illustrates ES2 cells (250,000 cells/well) treated with compounds at 1 μM for 12 hr and mRNA was isolated. Samples were subjected to RT-qPCR to measure CHOP10 and mRNA levels normalized to GAPDH expression. Significance versus DMSO control (ns=not significant, ** <0.01, *** <0.001, **** <0.0001).
FIG. 16A illustrates ES2 cells treated with compounds (0.5 μM) for 12 hr and CHOP-10 mRNA levels, an ER stress marker, which was analyzed by qRT-PCR.
Q-PCR to measure mRNA levels: Total RNA was isolated from cells using the RNeasy mini kit (Qiagen) according to the manufacturer's instructions. Extracted RNA was normalized for concentration and reverse transcribed using an iScript cDNA synthesis kit (Bio-Rad) according to the manufacturer's instructions. CHOP10 expression levels were measured by Taqman gene expression assays with Taqman gene expression master mix (Applied Biosystems) and run with a standard thermal cycling protocol. Spliced XBP1 mRNA was assayed with SsoFast EvaGreen Supermix (Bio-rad) following the protocol for the iCycler System using as primers: F: 5′-[…]-3′ and R: 5′-[…]-3′. Calculations were done according to the Livak method and normalized to the reference gene GAPDH. Each condition was replicated three times; each sample was run in triplicate.

A further data set has as its system HS578T. The experiment in a line: MTT cytotoxicity assay, HS578T. For orientation: Tetrazolium dyes change colour on reduction, which living cells bring about.
In another data set the test system is LNCaP. The experiment in a line: MTT cytotoxicity assay, LNCaP. Particulars: Homo sapiens.
The test system of a further data set is PC3. In words: MTT cytotoxicity assay, PC3. Particulars: Homo sapiens.
Another data set has as its system SUM149. The experiment in a line: cells. To be noted: SUM149, read-out: cytotoxicity IC50 SUM149.
Another data set has as its system PEO4. In words: cells. Particulars: PEO4, read-out: cytotoxicity IC50 PEO4.
A further data set deals with A2780. In words: MTT cytotoxicity assay, A2780.
Another data set relates to ID8-vegf. The experiment in a line: MTT cytotoxicity assay, ID8-vegf. To be noted: read-out: cytotoxicity IC50 ID8-vegf, Tables 3A/4B/4C.
A further data set deals with PEA2. In words: cells. To be noted: read-out: cytotoxicity IC50 PEA2.
The test system of the next data set is OVCAR3. The experiment in a line: MTT cytotoxicity assay, OVCAR3.
Another data set deals with ROS. In words: ROS by Amplex Red, ES2 cells. The class given is cell-based, human. Particulars: ES2, 12 hr; listed in order of potency. Here is the method:
FIG. 16C illustrates ES2 cells treated for 12 hr with compounds (or as a positive control, H2O2) at the indicated doses, and then reactive oxygen species (i.e. ROS) levels measured by adding Amplex Red and HRP.
Amplex Red Assay to measure ROS: Amplex Red reagent (#A12222, Thermo Scientific) combined with horseradish peroxidase (HRP) was used to detect H2O2. Briefly cells were treated in 96 well plates with corresponding compounds at indicated times. Next 50 μM Amplex® Red reagent plus 1 U/mL HRP in 50 mM sodium phosphate buffer, pH 7.4, were added to cells and incubated for 30 minutes at room temperature. Fluorescence was measured with a fluorescence-based microplate reader using excitation at 530±12.5 nm and detection at 580±25 nm. Background fluorescence of 969 units for Amplex® Red reagent, determined for a no-H2O2 control reaction, was subtracted from each value. H2O2 treatment (1 h) was used as positive control.

In the next data set the test system is SUM1315. The experiment in a line: cells. To be noted: read-out: cytotoxicity IC50 SUM1315.
The subject of data set [1] is HFF (Human Foreskin Fibroblast). In words: MTT cytotoxicity assay, HFF normal cells. The class given is cell-based. Particulars: read-out: IC50 HFF.
Procedure: (§1) Cell lines and cytotoxicity assays: All cell lines were obtained from the American Type Culture Collection (ATCC) and cultured in the specified medium supplemented with 10% fetal bovine serum, 100 IU/mL penicillin, and 100 μg/mL streptomycin at 37° C. in a humidified 5% CO2/95% air incubator. […] To assess drug cytotoxicity, cells were seeded at 2,500 cells/well (10,000 cells/well for MM lines) in 100 μL medium in 96-well plate and after 24 treated with compounds for 72 h, incubated according to the manufacturer's protocol with the Thiazolyl Blue Tetrazolium Bromide (Sigma, M2128) and A570 measured using a Benchmark Plus microplate spectrophotometer (BIO-RAD). IC50 data was analyzed by Graphpad Prism software.
The test system of another data set is RPMI8226-V10R. The experiment in a line: MTT cytotoxicity assay, RPMI8226-V10R. The data set is classed as cell-based. To be noted: read-out: IC50 RPMI8226-V10R.
For a further data set, the system named is OVCAR5. In words: MTT cytotoxicity assay, OVCAR5. To be noted: Homo sapiens, read-out: IC50 OVCAR5. The class given is cell-based.
A further data set concerns MDA-MB231. In words: MTT cytotoxicity assay, MDA-MB231. The data set is classed as cell-based. To be noted: Homo sapiens, read-out: IC50 MDA-MB231.
For a further data set, the system named is HCC1806. The experiment in a line: MTT cytotoxicity assay, HCC1806. The class given is cell-based. To be noted: Homo sapiens, read-out: IC50 HCC1806.
The next data set relates to BR5-Luc. The experiment in a line: MTT cytotoxicity assay, BR5-Luc. Particulars: read-out: cytotoxicity IC50 BR5-Luc, Tables 3A/4B/4C, BRCA2 − VE.
The mark [2] stands for this setting: read-out: cytotoxicity IC50 HS578T, Tables 3A/4B/4C, MTT assay.
The mark [3] stands for this setting: read-out: cytotoxicity IC50 LNCAP.
Where [4] appears, read: PC-3, read-out: cytotoxicity IC50 PC3.
Where [5] appears, read: read-out: cytotoxicity IC50 A2780, Tables 3A/4B/4C, MTT assay.
[6] abbreviates: read-out: cytotoxicity IC50 OVCAR3, Tables 3A/4B/4C, MTT assay.
Where [7] appears, read: Table 3, MTT, 48 hr, normal Human Foreskin Fibroblast.

Like-named read-outs stand apart in the source and are kept apart here. Bounds are passed on as bounds.

Procedure for HCC1806: as §1
Procedure for MDA-MB231: as §1
Procedure for OVCAR5: as §1
Procedure for PEA2: (§2) Cell lines and cytotoxicity assays: All cell lines were obtained from the American Type Culture Collection (ATCC) and cultured in the specified medium supplemented with 10% fetal bovine serum, 100 IU/mL penicillin, and 100 μg/mL streptomycin at 37° C. in a humidified 5% CO2/95% air incubator. […] To assess drug cytotoxicity, cells were seeded at 2,500 cells/well (10,000 cells/well for MM lines) in 100 μL medium in 96-well plate and after 24 treated with compounds for 72 h, incubated according to the manufacturer's protocol with the Thiazolyl Blue Tetrazolium Bromide (Sigma, M2128) and A570 measured using a Benchmark Plus microplate spectrophotometer (BIO-RAD). IC50 data was analyzed by Graphpad Prism software. In the chirality studies the cells were treated with compounds for 48 h, and the cells were incubated and measured via the preceeding protocols.
Procedure for PEO1: as §2
Procedure for PEO4: as §2
Procedure for RPMI8226-V10R: The cytotoxic efficacy of selected compounds was assessed against multiple myeloma (MM) cell lines, as this is a validated clinical target for the licensed proteasome inhibitors.
as §1
Procedure for SUM1315: as §2
Procedure for SUM149: as §2

For `CC1/C(=C\c2ccc([N+](=O)[O-])cc2)C(=O)/C(=C/c2ccc([N+](=O)[O-])cc2)CN1C(=O)[C@H](Cc1ccccc1)NC(=O)CCl` (stereo partly drawn) [RA414], in the data set with intracellular GSH, the “intracellular GSH concentrations” value was “reduced intracellular GSH concentrations”. Besides, the IC50 in the data set on PEO1 was 30 nM; in the data set with HS578T (setting [2]), 1.5 nM; in the data set with LNCaP (setting [3]), 24 nM; in the data set with PC3 (setting [4]), 12 nM; in the data set with SUM149 it was less than 20 nM; with PEO4, 30 nM. Also, the IC50 in the data set on A2780 (setting [5]) is 3.5 nM; in the data set with ID8-vegf it was less than 40 nM; in the data set on PEA2, 30 nM; in the data set on OVCAR3 (setting [6]), less than 20 nM; with SUM1315 it was 20 nM. Moreover, the CHOP10 transcript levels entry in the data set with CHOP-10 mRNA is reported as “significantly increased CHOP10 transcript levels”. For the same molecule, the “level of ROS (Amplex Red)” value with ROS is recorded as “raised the level of ROS in a dose-dependent manner”.
On to `O=C(CCl)N[C@@H](Cc1ccccc1)C(=O)N1C/C(=C\c2ccc([N+](=O)[O-])cc2)C(=O)/C(=C/c2ccc([N+](=O)[O-])cc2)C1` [RA375], for which the IC50 with PEO1 is 27 nM; in the data set with LNCaP (48 h, read-out: IC50 LNCaP) it was 60 nM; with PC3 (PC-3, 48 h, read-out: IC50 PC3) it was 27 nM; in [1] (Homo sapiens, Fibroblast, 48 h) it was more than 1000 nM; in the data set with RPMI8226-V10R (48 h), 6 nM; in the data set with PEA2, 60 nM. Moreover, the IC50 with OVCAR5 (OVCAR-5, 48 h) is 12 nM; in the data set on OVCAR3 (read-out: IC50 OVCAR3), 17 nM; in the data set with MDA-MB231 (MDA-MB-231, 48 h), 22 nM; in the data set with HCC1806 (HCC1806, 48 h) it was 17 nM; with SUM1315, 19 nM.
Consider `C[C@H]1/C(=C\c2ccc([N+](=O)[O-])cc2)C(=O)/C(=C/c2ccc([N+](=O)[O-])cc2)CN1C(=O)[C@@H](N)Cc1ccccc1`, for which the “intracellular GSH concentrations” value with intracellular GSH was “reduced intracellular GSH concentrations”. For the same molecule, the IC50 in the data set with PEO1 is 31 nM; with SUM149 it was 20 nM; in the data set with PEO4, 41 nM; with BR5-Luc, 5.7 nM; in the data set with PEA2, 64 nM; with SUM1315, 258 nM. Moreover, the CHOP10 transcript levels result in the data set with CHOP-10 mRNA was “significantly increased CHOP10 transcript levels”. In addition, in the data set with ROS, the “level of ROS (Amplex Red)” value is “raised the level of ROS in a dose-dependent manner”.
`CC(C)C[C@H](NC(=O)[C@H](Cc1ccccc1)NC(=O)c1cnccn1)B(O)O` [Bortezomib, bortezomib, reference compound]: the “intracellular GSH concentrations” value with intracellular GSH was “reduced intracellular GSH concentrations”. The IC50 is 31 nM with PEO1; 13 nM in the data set on HS578T (setting [2]); 30 nM with SUM149; 31 nM with PEO4; 3 nM with A2780 (setting [5]); more than 100 nM in data set [1] (setting [7]). The IC50 in the data set on ID8-vegf stood at 1.5 nM; with BR5-Luc, 4.1 nM; in the data set with PEA2 it was 30 nM; in the data set on OVCAR3 (setting [6]) it was 30 nM. Further, the CHOP10 transcript levels entry with CHOP-10 mRNA was “significantly increased CHOP10 transcript levels”. Further, the “level of ROS (Amplex Red)” value with ROS is on record as “raised the level of ROS in a dose-dependent manner”.
With `N[C@@H](Cc1ccccc1)C(=O)N1C/C(=C\c2ccc([N+](=O)[O-])cc2)C(=O)/C(=C/c2ccc([N+](=O)[O-])cc2)C1` [RA183, reference compound], the IC50 worked out at 89 nM in the data set on HS578T (read-out: IC50 HS578T, Table 3, MTT, 48 hr, Triple Negative Breast); 89 nM with HS578T (setting [2]); 186 nM in the data set with LNCaP (48 h, read-out: IC50 LNCaP); 186 nM in the data set on LNCaP (setting [3]); 133 nM with PC3 (PC-3, 48 h, read-out: IC50 PC3); 133 nM with PC3 (setting [4]). Further, the IC50 is 161 nM with A2780 (read-out: IC50 A2780, Table 3, MTT, 48 hr, Ovarian); 161 nM in the data set on A2780 (setting [5]); more than 1000 nM in [1] (Homo sapiens, Fibroblast, 48 h); 198 nM in the data set on ID8-vegf; 139 nM with RPMI8226-V10R (48 h); 56 nM in the data set with OVCAR5 (OVCAR-5, 48 h). Also, the IC50 was 78 nM in the data set with OVCAR3 (read-out: IC50 OVCAR3, Table 3, MTT, 48 hr, Ovarian); 78 nM in the data set on OVCAR3 (setting [6]); 124 nM with MDA-MB231 (MDA-MB-231, 48 h); 44 nM with HCC1806 (HCC1806, 48 h). Further, the “level of ROS (Amplex Red)” value in the data set on ROS is reported as “raised the level of ROS in a dose-dependent manner”.
For the molecule `N[C@@H](Cc1ccccc1)C(=O)N1C/C(=C\c2ccc(Cl)c(Cl)c2)C(=O)/C(=C/c2ccc(Cl)c(Cl)c2)C1` [RA190, reference compound], the IC50 in the data set with PEO1 was 232 nM; with HS578T (setting [2]), 78 nM; in the data set on LNCaP (setting [3]), 242 nM; with PC3 (setting [4]), 162 nM; with SUM149 it was 233 nM; in the data set with PEO4, 168 nM. Also, the IC50 in the data set with A2780 (setting [5]) is 139 nM; in [1] (setting [7]), more than 1000 nM; in the data set on ID8-vegf, 211 nM; in the data set with RPMI8226-V10R (Table 3, MTT, 48 hr, Multiple Myeloma, bortezomib resistant) it was 47 nM; in the data set with BR5-Luc, 38 nM; in the data set on PEA2, 396 nM. Also, the IC50 in the data set with OVCAR5 (OVCAR-5, Table 3, MTT, 48 hr, Ovarian) came to 64 nM; with OVCAR3 (setting [6]) it was 120 nM; in the data set on MDA-MB231 (MDA-MB-231, Table 3, MTT, 48 hr, Triple Negative Breast) it was 134 nM; in the data set on HCC1806 (HCC1806, Table 3, MTT, 48 hr, Triple Negative Breast), 52 nM; with SUM1315, 1370 nM.
